Paper PMC10650131 (International Journal of Molecular Sciences, 2023)
Where “and” joins values, the source holds several entries; their conditions need not be identical. Identical values can stand only once. Entries after “also recorded” stand apart in the source; their conditions may differ. Like-named read-outs stand apart in the source and are kept apart here.

Legend:
hD4.4R = biological target: T1, hD4.4R (Homo sapiens, UniProt P21917); experiment: Cell-based functional GPCR assay, cAMP, CHO-D4R; settings: for % Stimulation, hD4.4R: 100 μM compound, % of control agonist response (300 nM DA)
T1 sequence (P21917 1-419): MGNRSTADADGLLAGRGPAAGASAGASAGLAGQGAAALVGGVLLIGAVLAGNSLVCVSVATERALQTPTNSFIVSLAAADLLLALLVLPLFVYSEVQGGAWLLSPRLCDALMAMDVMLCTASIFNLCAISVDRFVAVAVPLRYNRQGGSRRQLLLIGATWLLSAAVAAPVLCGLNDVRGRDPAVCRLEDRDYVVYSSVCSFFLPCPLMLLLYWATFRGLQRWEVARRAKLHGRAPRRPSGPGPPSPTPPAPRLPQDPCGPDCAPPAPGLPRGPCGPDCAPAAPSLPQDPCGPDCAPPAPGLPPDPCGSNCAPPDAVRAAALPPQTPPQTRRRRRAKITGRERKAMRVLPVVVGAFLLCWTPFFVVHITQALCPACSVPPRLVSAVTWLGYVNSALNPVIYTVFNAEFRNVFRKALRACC
Description: (§1) Cell-based functional GPCR assays were conducted in CHO cells and Ba/F3 cells transfected with a plasmid containing the GPCR gene of interest. The functional activity of the test compounds (agonist or antagonist) was evaluated by measuring their effects on cAMP modulation or Ca^2+ ion mobilization, depending on the receptor type. All assays were performed at Eurofins Cerep (Le Bois I’Eveque, France) following their in-house protocol, as stated in our previous reports.
(§2) The functional activity of the test compounds on D1R, D3R, and D4R was assessed by evaluating the effect on cAMP modulation.

hD1R = hD1R (Homo sapiens, UniProt P21728); experiment: Cell-based functional GPCR assay, cAMP, CHO-D1R; settings: for % Stimulation, hD1R: 100 μM compound, % of control agonist response (10 μM DA)
Chain of hD1R (P21728 whole entry): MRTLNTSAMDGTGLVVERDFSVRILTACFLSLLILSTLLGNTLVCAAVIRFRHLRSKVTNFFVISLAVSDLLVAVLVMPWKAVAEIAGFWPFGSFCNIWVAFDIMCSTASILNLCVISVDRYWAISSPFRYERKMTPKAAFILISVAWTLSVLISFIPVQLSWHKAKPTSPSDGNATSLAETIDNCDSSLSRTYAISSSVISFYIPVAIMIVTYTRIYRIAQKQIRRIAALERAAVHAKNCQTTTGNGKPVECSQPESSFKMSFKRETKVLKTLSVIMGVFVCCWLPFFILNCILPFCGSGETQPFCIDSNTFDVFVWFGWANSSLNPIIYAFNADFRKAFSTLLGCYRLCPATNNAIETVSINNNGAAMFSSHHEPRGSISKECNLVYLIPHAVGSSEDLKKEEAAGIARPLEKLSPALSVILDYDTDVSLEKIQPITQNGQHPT
Description: as §1, §2

hD3R = hD3R (Homo sapiens, UniProt P35462); experiment: Cell-based functional GPCR assay, cAMP, CHO-D3R
Chain of hD3R (P35462 whole entry): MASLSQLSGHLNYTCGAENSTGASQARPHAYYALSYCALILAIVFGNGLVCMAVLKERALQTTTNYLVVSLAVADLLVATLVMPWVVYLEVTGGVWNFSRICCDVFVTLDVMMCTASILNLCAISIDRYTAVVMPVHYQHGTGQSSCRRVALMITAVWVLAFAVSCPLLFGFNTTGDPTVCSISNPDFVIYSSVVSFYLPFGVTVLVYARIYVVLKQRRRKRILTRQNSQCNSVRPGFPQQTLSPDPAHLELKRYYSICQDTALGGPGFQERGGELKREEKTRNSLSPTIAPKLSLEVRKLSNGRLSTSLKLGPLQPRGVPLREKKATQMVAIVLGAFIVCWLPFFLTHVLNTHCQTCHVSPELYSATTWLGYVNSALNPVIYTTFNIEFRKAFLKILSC
Description: as §1, §2

hMAO-B = biological target: T2, hMAO-B (Homo sapiens, UniProt P27338); experiment: In vitro hMAO-B inhibition and enzyme kinetics, chemiluminescent MAO-Glo assay; type: biochemical; settings: for IC50: recombinant hMAO-B, mean ± SD of triplicate experiments; for SI (selective index): ratio of hMAO-A IC50/hMAO-B IC50
T2 construct: purchased Sigma-Aldrich
T2 sequence (P27338 1-520): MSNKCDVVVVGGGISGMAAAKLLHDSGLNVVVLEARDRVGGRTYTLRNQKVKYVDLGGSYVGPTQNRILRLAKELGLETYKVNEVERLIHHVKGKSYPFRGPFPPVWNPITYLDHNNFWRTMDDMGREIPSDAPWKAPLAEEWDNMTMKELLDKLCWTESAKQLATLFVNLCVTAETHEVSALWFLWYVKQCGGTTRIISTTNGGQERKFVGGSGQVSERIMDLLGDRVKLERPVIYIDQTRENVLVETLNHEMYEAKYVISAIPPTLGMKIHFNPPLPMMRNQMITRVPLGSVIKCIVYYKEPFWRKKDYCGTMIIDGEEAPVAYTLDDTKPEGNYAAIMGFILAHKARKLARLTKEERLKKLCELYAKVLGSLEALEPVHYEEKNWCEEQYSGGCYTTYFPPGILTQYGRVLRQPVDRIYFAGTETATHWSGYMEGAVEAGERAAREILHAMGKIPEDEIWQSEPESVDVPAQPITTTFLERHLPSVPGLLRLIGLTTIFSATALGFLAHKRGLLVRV
Description: (§3) A chemiluminescent assay was performed in a white, opaque 96-well plate using the MAO-Glo kit (Promega, Madison, WI, USA) to evaluate human monoamine oxidase (hMAO) inhibitory potential. Detailed experimental conditions and procedures were reported previously. The test compounds were evaluated at different concentrations to obtain an IC50 value. The percent of inhibition (%) was obtained with the following equation: % Inhibition = (Ac − As)/Ac × 100, where Ac is the absorbance of the control and As is the absorbance of the sample. For hMAO-A, clorgyline was used as a positive control.
(§4) Kinetic parameters were analyzed using SigmaPlot (v12.0, SPP Inc., Chicago, IL, USA).

male C57BL/6 mice = experiment: Forced swim test; type: in vivo, mouse
Description: Male C57BL/6 mice (22–26 g, 7 weeks) were purchased from Orient Bio Inc. (Seongnam-si, Korea), a branch of Charles River Laboratories (Seoul, Republic of Korea), and kept in the University Animal Care Unit for 1 week before the experiments. Five animals were housed per cage and allowed access to water and food ad libitum; the environment was maintained at a constant temperature (23 ± 1 °C) and humidity (60 ± 10%) under a 12 h light/dark cycle (the lights were on from 07:30 to 19:30 h). The treatment and maintenance of the animals were carried out according to the Animal Care and Use Guidelines of Dong-A University, Republic of Korea. All in vivo experiments were performed according to the protocols approved by the Institutional Animal Care and Use Committee of Dong-A University (approved protocol numbers: DIACUC-approved-17-20) and were per the National Institutes of Health guidelines. A forced swim test (FST) was performed in a transparent cylindrical glass cylinder with a diameter of 14 cm and a height of 25 cm filled with 20 cm of water (24 ± 2 °C). Mice were habituated to the experimental environment 1 h before the test. […] Mice were immersed in water and recorded with a video camera for a total of 6 min. Immobility time was analyzed for the last 4 min of the 6 min using a video-based Ethovision System (Noldus, Wageningen, The Netherlands).

h5HT1AR = biological target: T3, h5HT1AR (Homo sapiens, UniProt P08908); experiment: Cell-based functional GPCR assay, Ca2+ mobilization, Ba/F3-5HT1AR; settings: for % Stimulation, h5HT1AR: 100 μM compound, % of control agonist response (2.5 μM serotonin)
T3 construct: host or cells: Ba/F3 (Ba/F3-5HT1AR)
T3 sequence (P08908 1-422): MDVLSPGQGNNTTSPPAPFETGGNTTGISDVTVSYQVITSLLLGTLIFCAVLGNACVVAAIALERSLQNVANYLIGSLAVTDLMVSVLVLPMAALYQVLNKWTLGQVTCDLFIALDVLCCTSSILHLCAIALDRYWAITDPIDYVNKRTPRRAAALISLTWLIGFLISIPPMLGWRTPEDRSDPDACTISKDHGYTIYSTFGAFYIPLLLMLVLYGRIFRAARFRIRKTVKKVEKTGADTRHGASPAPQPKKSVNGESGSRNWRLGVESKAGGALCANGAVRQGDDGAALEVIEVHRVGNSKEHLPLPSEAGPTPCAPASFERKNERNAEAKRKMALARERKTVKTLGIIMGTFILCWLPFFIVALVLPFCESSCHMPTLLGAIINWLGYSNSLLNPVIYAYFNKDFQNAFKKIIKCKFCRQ
Description: as §1
(§5) The functional activity of the test compounds on D2R and 5HT1AR was tested by fluorimetrically evaluating their effect on cytosolic Ca^2+ ion mobilization. […] Then, a fluorescent probe (Fluo8, AAT Bioquest, Sunnyvale, CA, USA) mixed with probenecid in HBSS (Invitrogen, Carlsbad, CA, USA) supplemented with […] (Invitrogen) (pH 7.4) was added to each well, and the cells were allowed to equilibrate for 60 min at 37 °C. […] We then measured the fluorescent intensity, which varied in proportion to the free cytosolic Ca^2+ ion concentration.

hD2LR = biological target: T4, hD2LR (Homo sapiens, UniProt P14416); experiment: Cell-based functional GPCR assay, Ca2+ mobilization, CHO-D2R; settings: for % Stimulation, hD2LR: 100 μM compound, % of control agonist response (10 μM DA)
T4 construct: host or cells: CHO (CHO-D2R)
T4 sequence (P14416 whole entry): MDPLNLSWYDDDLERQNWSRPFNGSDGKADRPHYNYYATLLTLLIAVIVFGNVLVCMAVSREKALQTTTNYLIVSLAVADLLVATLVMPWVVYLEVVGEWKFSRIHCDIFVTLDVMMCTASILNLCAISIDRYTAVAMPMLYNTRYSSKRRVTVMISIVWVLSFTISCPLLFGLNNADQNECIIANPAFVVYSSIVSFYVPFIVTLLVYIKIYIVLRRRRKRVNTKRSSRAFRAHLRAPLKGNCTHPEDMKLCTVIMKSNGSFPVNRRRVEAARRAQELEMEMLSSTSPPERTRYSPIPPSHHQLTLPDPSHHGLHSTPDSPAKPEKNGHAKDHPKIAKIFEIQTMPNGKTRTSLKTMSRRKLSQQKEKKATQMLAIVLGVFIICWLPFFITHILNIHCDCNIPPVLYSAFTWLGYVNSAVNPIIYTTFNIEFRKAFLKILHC
Description: as §1, §5

[1] = design: method as in PMID 31173966; settings: cited from earlier work
hMAO-A = biological target: T5, hMAO-A (Homo sapiens, UniProt P21397); experiment: In vitro hMAO-A inhibition and enzyme kinetics, chemiluminescent MAO-Glo assay; type: biochemical; settings: recombinant hMAO-A; mean ± SD of triplicate experiments
T5 construct: purchased Sigma-Aldrich
T5 sequence (P21397 1-527): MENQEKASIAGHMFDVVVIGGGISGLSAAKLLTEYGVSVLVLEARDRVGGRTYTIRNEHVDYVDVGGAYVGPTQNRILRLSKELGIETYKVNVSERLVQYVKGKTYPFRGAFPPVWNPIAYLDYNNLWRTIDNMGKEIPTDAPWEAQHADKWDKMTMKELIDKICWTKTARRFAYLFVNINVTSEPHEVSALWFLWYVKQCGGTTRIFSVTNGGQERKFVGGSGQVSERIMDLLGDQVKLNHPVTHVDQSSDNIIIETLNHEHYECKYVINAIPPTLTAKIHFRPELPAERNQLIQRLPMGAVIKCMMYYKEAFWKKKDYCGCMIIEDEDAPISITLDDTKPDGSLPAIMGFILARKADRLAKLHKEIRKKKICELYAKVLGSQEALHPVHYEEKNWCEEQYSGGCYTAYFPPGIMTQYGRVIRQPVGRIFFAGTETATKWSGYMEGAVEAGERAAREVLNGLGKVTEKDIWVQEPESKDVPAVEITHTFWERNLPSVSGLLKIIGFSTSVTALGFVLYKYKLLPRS
Description: as §3, §4

MAO-A = system: MAO-A; design: method as in earlier work; settings: ref 49 (Park et al. 2020); cited from earlier work

## O=c1cc(-c2ccc(O)c(O)c2)oc2cc(O)ccc12 [Compound 1, 3′,4′,7-trihydroxyflavone]
hD4.4R
  inhibition at 100 µM: 134%
  % Stimulation, hD4.4R: 10.33 ± 7.46%
hD4.4R; 12.5 µM compound, read-out: % inhibition of the response of the control agonist, hD4.4R
  inhibition at 12.5 µM: 40.9%
hD4.4R; 25 µM compound, read-out: % inhibition of the response of the control agonist, hD4.4R
  inhibition at 25 µM: 57.6%
hD4.4R; 50 µM compound, read-out: % inhibition of the response of the control agonist, hD4.4R
  inhibition at 50 µM: 69%
hD4.4R; read-out: IC50, antagonist effect at hD4.4R
  IC50: 22.5 ± 2.18 µM
hD1R
  inhibition at 100 µM: 0.7%
  % Stimulation, hD1R: 6.95 ± 14.07%
hD3R
  inhibition at 100 µM: -0.97%
hD3R; 100 μM compound, % of control agonist response (300 nM DA)
  % Stimulation, hD3R: 38.5 ± 5.94%
hMAO-B
  IC50: > 150 µM
Male C57BL/6 mice; 3, 10, and 30 mg/kg p.o., 1 h before FST
  Immobility time in forced swimming test: did not reduce the immobility time; also recorded: none of those doses alleviated the immobility time; also recorded: did not show an antidepressant effect
h5HT1AR
  inhibition at 100 µM: 18.1%
  % Stimulation, h5HT1AR: −2.9 ± 0.28%
hD2LR
  inhibition at 100 µM: -40%
  % Stimulation, hD2LR: −22.45 ± 2.05%

## C=C(C)[C@@H]1CCC(C)=C[C@H]1c1c(O)cc(CCCCC)cc1O [cannabidiol]
[1]; 10 mg/kg i.v. weekly for four weeks
  Effect on depressive symptoms: significantly improve depressive symptoms
[1]; 10 mg/kg p.o.
  Effect on depressive symptoms: no significant effects
[1]; 100 mg/kg p.o. weekly for four weeks
  Effect on depressive symptoms: significantly improve depressive symptoms

## CNCCCN1c2ccccc2CCc2ccccc21 [desipramine, reference compound]
Male C57BL/6 mice; 15 mg/kg dose p.o., positive control
  Immobility time in forced swimming test: significant reduction in immobility time

## COc1ccc(-c2coc3cc(O)ccc3c2=O)cc1O [Compound 3, calycosin]
hD4.4R
  inhibition at 100 µM: -27.3%
  % Stimulation, hD4.4R: 33.63 ± 12.10%
hD1R
  inhibition at 100 µM: 47.8%
  % Stimulation, hD1R: 5.65 ± 11.53%
hD3R
  inhibition at 100 µM: -7.97%
hMAO-B; Lineweaver–Burk plot and its secondary plots, read-out: Inhibition constants (Ki) hMAO-B
  Ki: 2.56 µM
hMAO-B
  SI (selective index): 15.82
  IC50: 7.19 ± 0.32 µM
hMAO-B; secondary plot of slopes (Kmapp/Vmaxapp) versus concentrations of inhibitor
  Inhibition mode, hMAO-B: Competitive
h5HT1AR
  inhibition at 100 µM: 16.8%
  % Stimulation, h5HT1AR: 2.5 ± 0.42%
hMAO-A
  IC50: 114 ± 3.39 µM
hD2LR
  inhibition at 100 µM: -18.6%
  % Stimulation, hD2LR: −13.8 ± 0.28%

## O=c1cc(-c2ccc(O)c(O)c2)oc2cc(O)cc(O)c12 [luteolin, 3′,4′,5,7-tetrahydroxyflavone]
MAO-A
  IC50: 8.57 ± 0.47 µM

## O=c1c(-c2ccc(O)c(O)c2)coc2cc(O)ccc12 [Compound 2, 3′,4′,7-trihydroxyisoflavone]
hD4.4R
  inhibition at 100 µM: -11.2%
  % Stimulation, hD4.4R: 35.8 ± 10.59%
hD1R
  inhibition at 100 µM: 22.2%
  % Stimulation, hD1R: −3.1 ± 5.66%
hD3R
  inhibition at 100 µM: -8%
hMAO-B
  SI (selective index): 2.48
  IC50: ~70 µM and 71.2 µM
h5HT1AR
  inhibition at 100 µM: 7.3%
  % Stimulation, h5HT1AR: −1.1 ± 0.42%
hMAO-A
  IC50: 177 ± 7.8 µM
hD2LR
  inhibition at 100 µM: -25.8%
  % Stimulation, hD2LR: −18.35 ± 0.78%
